Assay results: patent publication US20240158446A1, “CYCLIC COMPOUND HAVING SELECTIVE INHIBITORY ACTION ON KRAS OVER HRAS AND NRAS” (CHUGAI SEIYAKU KABUSHIKI KAISHA, priority 2021, published 2024)

Tests used:
[1] = biological target: GDP-bound NRAS wild-type protein (Homo sapiens, UniProt P01111); experiment: Binding to NRAS by surface plasmon resonance (SPR), Single Cycle Kinetics; conditions: SPR, GDP-bound NRAS wild-type protein vs GDP-bound KRAS wild-type protein
[2] = biological target: GDP-bound KRAS wild-type protein (Homo sapiens, UniProt P01116); experiment: Binding to KRAS by surface plasmon resonance (SPR), Single Cycle Kinetics; conditions: SPR, Single Cycle Kinetics, GDP-bound KRAS wild-type protein; read-out: KRAS KD
GDP-bound KRAS wild-type protein, sequence (P01116 whole entry): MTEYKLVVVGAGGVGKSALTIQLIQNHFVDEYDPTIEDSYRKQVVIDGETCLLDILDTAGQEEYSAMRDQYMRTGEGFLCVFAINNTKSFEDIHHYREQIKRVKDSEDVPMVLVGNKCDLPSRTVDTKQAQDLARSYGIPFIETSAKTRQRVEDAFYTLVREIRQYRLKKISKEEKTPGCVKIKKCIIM

[3] = biological target: GDP-bound HRAS wild-type protein (Homo sapiens, UniProt P01112); experiment: Binding to HRAS by surface plasmon resonance (SPR), Single Cycle Kinetics; conditions: SPR, GDP-bound HRAS wild-type protein vs GDP-bound KRAS wild-type protein
GDP-bound HRAS wild-type protein, sequence (P01112 whole entry): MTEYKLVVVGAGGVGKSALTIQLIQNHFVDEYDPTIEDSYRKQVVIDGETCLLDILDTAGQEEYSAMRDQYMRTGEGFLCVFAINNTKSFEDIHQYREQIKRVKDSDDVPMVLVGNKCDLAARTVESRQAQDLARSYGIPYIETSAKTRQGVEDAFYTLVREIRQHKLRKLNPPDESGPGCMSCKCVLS

[4] = tested on: human lung cancer strain NCI-H441;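 further: cell proliferation inhibition after four days measured by CellTiter-Glo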

GDP-bound NRAS wild-type protein, sequence (P01111 whole entry): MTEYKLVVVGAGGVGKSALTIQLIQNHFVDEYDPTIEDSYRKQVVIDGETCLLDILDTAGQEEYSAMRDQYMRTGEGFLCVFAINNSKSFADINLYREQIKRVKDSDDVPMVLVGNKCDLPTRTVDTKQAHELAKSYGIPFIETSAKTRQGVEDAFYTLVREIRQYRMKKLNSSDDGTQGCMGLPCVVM

Row | SMILES | NRAS/KRAS (ratio of KD value for NRAS to KD value for KRAS) [1] | Kd [2] | HRAS/KRAS (ratio of KD value for HRAS to KD value for KRAS) [3] | IC50 [4]
1 | CCO[C@@H]1C[C@H]2C(=O)NC3(CCC3)C(=O)N(C)[C@@H](C3CCCC3)C(=O)N(C)[C@H](C(=O)N3CCOCC3)CC(=O)N(C)[C@@H](Cc3ccccc3C#N)C(=O)N[C@@H]([C@@H](C)CC)C(=O)N(C)CC(=O)N(C)[C@H]3CCCCCN(C3=O)[C@@H](Cc3ccc(F)cc3)C(=O)N(C)CC(=O)N[C@@H](CCc3cc(F)c(C(F)(F)F)c(F)c3)C(=O)N2C1 [PP1185] | B (a compound having 3 or more and less than 10 is denoted as B) | 0.5 nM | B (a compound having 3 or more and less than 10 is denoted as B) | 175 nM
2 | CCO[C@@H]1C[C@H]2C(=O)NC3(CCC3)C(=O)N(C)[C@@H](C3CCCC3)C(=O)N(C)[C@H](C(=O)N3CCOCC3)CC(=O)N(C)[C@@H](Cc3cccc(C#N)c3)C(=O)N[C@@H]([C@@H](C)CC)C(=O)N(C)CC(=O)N(C)[C@H]3CCCCCN(C3=O)[C@@H](Cc3ccc(F)cc3)C(=O)N(C)CC(=O)N[C@@H](CCc3cc(F)c(C(F)(F)F)c(F)c3)C(=O)N2C1 [PP1186] | B (a compound having 3 or more and less than 10 is denoted as B) | 0.094 nM | B (a compound having 3 or more and less than 10 is denoted as B) | 54.4 nM
3 | CCO[C@@H]1C[C@H]2C(=O)NC3(CCC3)C(=O)N(C)[C@@H](C3CCCC3)C(=O)N(C)[C@H](C(=O)N3CCOCC3)CC(=O)N(C)[C@@H](Cc3ccc(C#N)cc3)C(=O)N[C@@H]([C@@H](C)CC)C(=O)N(C)CC(=O)N(C)[C@H]3CCCCCN(C3=O)[C@@H](Cc3ccc(F)cc3)C(=O)N(C)CC(=O)N[C@@H](CCc3cc(F)c(C(F)(F)F)c(F)c3)C(=O)N2C1 [PP1187] | B (a compound having 3 or more and less than 10 is denoted as B) | 0.12 nM | B (a compound having 3 or more and less than 10 is denoted as B) | 52.3 nM
4 | CCO[C@@H]1C[C@H]2C(=O)NC3(CCC3)C(=O)N(C)[C@@H](C3CCCC3)C(=O)N(C)[C@H](C(=O)N3CCOCC3)CC(=O)N(C)[C@@H](Cc3ccc(Cl)c(Cl)c3)C(=O)N[C@@H]([C@@H](C)CC)C(=O)N(C)CC(=O)N(C)[C@H]3CCCCCN(C3=O)[C@@H](Cc3ccc(F)cc3)C(=O)N(C)CC(=O)N[C@@H](CCc3cc(F)c(C(F)(F)F)c(F)c3)C(=O)N2C1 [PP1188] | B (a compound having 3 or more and less than 10 is denoted as B) | 0.43 nM | B (a compound having 3 or more and less than 10 is denoted as B) | 33.5 nM
5 | CCO[C@@H]1C[C@H]2C(=O)NC3(CCC3)C(=O)N(C)[C@@H](C3CCCC3)C(=O)N(C)[C@H](C(=O)N(C)C)CC(=O)N(C)[C@@H](C)C(=O)N[C@@H]([C@@H](C)CC)C(=O)N(C)CC(=O)N(C)[C@H]3CCCCCN(C3=O)[C@@H](Cc3ccc(F)cc3)C(=O)N(C)CC(=O)N[C@@H](CCc3cc(F)c(C(F)(F)F)c(F)c3)C(=O)N2C1 [PP1189] | B (a compound having 3 or more and less than 10 is denoted as B) | 0.066 nM | B (a compound having 3 or more and less than 10 is denoted as B) | 16.1 nM
6 | CCO[C@@H]1C[C@H]2C(=O)NC3(CCC3)C(=O)N(C)[C@@H](C3CCCC3)C(=O)N(C)[C@H](C(=O)N(C)C)CC(=O)N(C)[C@@H](CC)C(=O)N[C@@H]([C@@H](C)CC)C(=O)N(C)CC(=O)N(C)[C@H]3CCCCCN(C3=O)[C@@H](Cc3ccc(F)cc3)C(=O)N(C)CC(=O)N[C@@H](CCc3cc(F)c(C(F)(F)F)c(F)c3)C(=O)N2C1 [PP1190] | B (a compound having 3 or more and less than 10 is denoted as B) | 0.092 nM | B (a compound having 3 or more and less than 10 is denoted as B) | 15.5 nM
7 | CCO[C@@H]1C[C@H]2C(=O)NC3(CCC3)C(=O)N(C)[C@@H](C3CCCC3)C(=O)N(C)[C@H](C(=O)N(C)C)CC(=O)N(C)[C@@H](CC(F)F)C(=O)N[C@@H]([C@@H](C)CC)C(=O)N(C)CC(=O)N(C)[C@H]3CCCCCN(C3=O)[C@@H](Cc3ccc(F)cc3)C(=O)N(C)CC(=O)N[C@@H](CCc3cc(F)c(C(F)(F)F)c(F)c3)C(=O)N2C1 [PP1191] | A (a compound having 10 or more and less than 20 is denoted as A) | 0.056 nM | B (a compound having 3 or more and less than 10 is denoted as B) | 13 nM
8 | CCO[C@@H]1C[C@H]2C(=O)NC3(CCC3)C(=O)N(C)[C@@H](C3CCCC3)C(=O)N(C)[C@H](C(=O)N(C)C)CC(=O)N(C)[C@@H](CC3CC3)C(=O)N[C@@H]([C@@H](C)CC)C(=O)N(C)CC(=O)N(C)[C@H]3CCCCCN(C3=O)[C@@H](Cc3ccc(F)cc3)C(=O)N(C)CC(=O)N[C@@H](CCc3cc(F)c(C(F)(F)F)c(F)c3)C(=O)N2C1 [PP1192] | B (a compound having 3 or more and less than 10 is denoted as B) | 0.04 nM | A (a compound having 10 or more and less than 20 is denoted as A) | 10.5 nM
9 | CCO[C@@H]1C[C@H]2C(=O)NC3(CCC3)C(=O)N(C)[C@@H](C3CCCC3)C(=O)N(C)[C@H](C(=O)N(C)C)CC(=O)N(C)[C@@H](COC)C(=O)N[C@@H]([C@@H](C)CC)C(=O)N(C)CC(=O)N(C)[C@H]3CCCCCN(C3=O)[C@@H](Cc3ccc(F)cc3)C(=O)N(C)CC(=O)N[C@@H](CCc3cc(F)c(C(F)(F)F)c(F)c3)C(=O)N2C1 [PP1193] | B (a compound having 3 or more and less than 10 is denoted as B) | 0.07 nM | B (a compound having 3 or more and less than 10 is denoted as B) | 16.3 nM
10 | CCO[C@@H]1C[C@H]2C(=O)NC3(CCC3)C(=O)N(C)[C@@H](C3CCCC3)C(=O)N(C)[C@H](C(=O)N(C)C)CC(=O)N(C)[C@@H](CCOC)C(=O)N[C@@H]([C@@H](C)CC)C(=O)N(C)CC(=O)N(C)[C@H]3CCCCCN(C3=O)[C@@H](Cc3ccc(F)cc3)C(=O)N(C)CC(=O)N[C@@H](CCc3cc(F)c(C(F)(F)F)c(F)c3)C(=O)N2C1 [PP1194] | B (a compound having 3 or more and less than 10 is denoted as B) | 0.068 nM | B (a compound having 3 or more and less than 10 is denoted as B) | 25.3 nM
11 | CCO[C@@H]1C[C@H]2C(=O)NC3(CCC3)C(=O)N(C)[C@@H](C3CCCC3)C(=O)N(C)[C@H](C(=O)N(C)C)CC(=O)N(C)[C@@H](Cc3ccccc3)C(=O)N[C@@H]([C@@H](C)CC)C(=O)N(C)CC(=O)N(C)[C@H]3CCCCCN(C3=O)[C@@H](Cc3ccc(F)cc3)C(=O)N(C)CC(=O)N[C@@H](CCc3cc(F)c(C(F)(F)F)c(F)c3)C(=O)N2C1 [PP1195] | B (a compound having 3 or more and less than 10 is denoted as B) | 0.074 nM | B (a compound having 3 or more and less than 10 is denoted as B) | 18.3 nM
12 | CCO[C@@H]1C[C@H]2C(=O)NC3(CCC3)C(=O)N(C)[C@@H](C3CCCC3)C(=O)N(C)[C@H](C(=O)N(C)C)CC(=O)N(C)[C@@H](Cc3cccnc3)C(=O)N[C@@H]([C@@H](C)CC)C(=O)N(C)CC(=O)N(C)[C@H]3CCCCCN(C3=O)[C@@H](Cc3ccc(F)cc3)C(=O)N(C)CC(=O)N[C@@H](CCc3cc(F)c(C(F)(F)F)c(F)c3)C(=O)N2C1 [PP1196] | B (a compound having 3 or more and less than 10 is denoted as B) | 0.04 nM | B (a compound having 3 or more and less than 10 is denoted as B) | 50.8 nM
13 | CCO[C@@H]1C[C@H]2C(=O)NC3(CCC3)C(=O)N(C)[C@@H](C3CCCC3)C(=O)N(C)[C@H](C(=O)N(C)C)CC(=O)N(C)[C@@H](Cc3cccs3)C(=O)N[C@@H]([C@@H](C)CC)C(=O)N(C)CC(=O)N(C)[C@H]3CCCCCN(C3=O)[C@@H](Cc3ccc(F)cc3)C(=O)N(C)CC(=O)N[C@@H](CCc3cc(F)c(C(F)(F)F)c(F)c3)C(=O)N2C1 [PP1197] | B (a compound having 3 or more and less than 10 is denoted as B) | 0.096 nM | B (a compound having 3 or more and less than 10 is denoted as B) | 14.8 nM
14 | CCO[C@@H]1C[C@H]2C(=O)NC3(CCC3)C(=O)N(C)[C@@H](C(CC)CC)C(=O)N(C)[C@H](C(=O)N(C)C)CC(=O)N(C)[C@@H](C)C(=O)N[C@@H]([C@@H](C)CC)C(=O)N(C)CC(=O)N(C)[C@H]3C/C=C\CCN(C3=O)[C@@H](Cc3ccc(C(F)(F)F)cc3)C(=O)N(C)CC(=O)N[C@@H](CCc3cc(F)c(C(F)(F)F)c(F)c3)C(=O)N2C1 [PP1199, (2S,8S,12R,14S,20S,23S,27S,30S,36S,38Z)-8-[2-[3,5-difluoro-4-(trifluoromethyl)phenyl]ethyl]-12-ethoxy-20-(1-ethylpropyl)-N,N,4,19,22,26,27,32,35-nonamethyl-30-[(1S)-1-methylpropyl]-3,6,9,15,18,21,25,28,31,34,42-undecaoxo-2-[[4-(trifluoromethyl)phenyl]methyl]spiro[1,4,7,10,16,19,22,26,29,32,35-undecazatricyclo[34.5.1.0^10,14]dotetracont-38-ene-17,1′-cyclobutane]-23-carboxamide] | A (a compound having 10 or more and less than 20 is denoted as A) | 0.17 nM | A (a compound having 10 or more and less than 20 is denoted as A) | 39.1 nM
